Test results as given in patent US20230364032A1, “USE OF 2-HOBA TO TREAT ATHEROSCLEROSIS” (Vanderbilt University, priority 2020, published 2023).
“Also recorded” adds a separate entry of the source.

Experiments:
IL-1β, IL-6, TNF-α, SAA = test: Plasma/serum inflammatory cytokines by ELISA; assay type: in vivo, mouse
Description: The inflammatory cytokines including IL-1β (5A), IL-6 (5B), TNF-α (5C) and SAA (5D) were measured by ELISA in plasma from mice consuming a western diet for 16 weeks and treated with 2-HOBA, 4-HOBA, or vehicle. N=8 per group.*p<0.05, **p<0.01. ***p<0.001. One-way ANOVA with Bonferroni's post hoc test.
Serum IL-1β, IL-6 and TNF-α levels were measured by ELISA (R&D System). N=7 or 8 mice per group, N.S., One-way ANOVA with Bonferroni's post hoc test.

MDA = test: Plasma MDA content by TBARS assay; assay type: in vivo, mouse; settings: Ldlr−/− mice, western diet 16 weeks; versus 4-HOBA or vehicle
Description: (§1) FIG. 21A-D show the effects of 2-HOBA on plasma and LDL MDA adducts in hypercholesterolemic Ldlr^−/− mice. (20A) The MDA content in plasma from Ldlr^−/− mice consuming a Western diet for 16 weeks and treated with 2-HOBA, 4-HOBA, or vehicle was measured by TBARS Assay(*p<0.05, **p<0.01). (20B) The levels of MDA adducts were measured from LDL isolated from the Ldlr^−/− mice by ELISA. N=10 per group, ***p<0.001. (20C) LDL was isolated from control and FH subjects (n=6) pre and post LDL apheresis and the MDA adduct content was measured by ELISA. (20D) LDL was isolated from 2-HOBA, 4-HOBA, or vehicle treated hypercholesterolemic Ldlr^−/− mice. WT peritoneal macrophages were incubated for 24 hrs with the LDL and the cellular cholesterol content was measured as described in methods. (20A-D) One-way ANOVA with Bonferroni's post hoc test).

MDA-HDL = test: MDA adducts in isolated HDL by ELISA; assay type: in vivo, mouse; settings: Ldlr−/− mice
Description: FIGS. 7A-7G show the effects of 2-HOBA on MDA-HDL adducts and HDL function. (7A) The levels or MDA adducts were measured by ELISA in HDL isolated from Ldlr mice treated as described in FIG. 1. Data are presented as mean±SEM (N=8 pet group), *** p<0.001, One-way ANOVA with Bonferroni's post hoc test. (7B) Western blots of apoAl and MDA-apoAl in HDL isolated from plasma by immunoprecipitation using primary anti-apoAl antibody. Ldlf mice were treated as described In FIG. 1 and apoAl and MDA-apoAl from Ldlr mice consuming a chow diet are included f0t comparison. (7C) Quantitation using lmageJ software of the mean density ratio (arbitrary units) of MDA-apoAl to apoAl detected by Western blotting (7B). (7D The HDL was isolated from the plasma of Ld/r-mice consuming a western diet for 16 weeks and treated with 2-HOBA or 4-HOBA or vehicle. Cholesterol enriched macrophages were incubated for 24 h with HDL (25 μg protein/ml). and the % reduction in cellular cholesterol content measured. Data presented as mean±SEM. N=7 per group, *p<0.05.**p<0.01, One-way ANOVA with Bonferroni's post hoc test (7E) The MDA adducts were measured by ELISA in HDL isolated from control or FH subjects before and after LDL apheresis. N=7 or 8, ***p<0.001, One-way ANOVA with Bonferroni's post hoc test. (7F) The MDA-Lysyl crosslink content in HDL from control or FH subjects (n=6 per group), p=0.02, Mann-Whitney test (7G) The capacity of HDL from control or FH subjects pre and post LDL apheresis (n=7 per group) to reduce the cholesterol content of apoE macrophages.
The study was approved by the Vanderbilt University Institutional Review Board (IRB), and all participants gave their written informed consent. The human blood samples from patients with severe FH, who were undergoing LDL apheresis, and healthy controls were obtained using an IRB approved protocol. […] After stopping the reaction, the O.D. was measured at 450 nm wavelength. MDA-ApoAI was detected in mouse plasma by immunoprecipitation of ApoAI and western blotting. […] Proteins were visualized and quantitated by Odyssey 3.0 Quantification software (LI-COR).

[1] = test system: WT peritoneal macrophages; test: Cholesterol enrichment of macrophages by LDL from treated mice; assay type: cell-based, mouse; settings: LDL from 2-HOBA versus 4-HOBA or vehicle treated Ldlr−/− mice, 24 hrs
Description: as §1
MDA was prepared immediately before use by rapid acid hydrolysis of maloncarbonyl bis-(dimethylacetal) as described^31. Briefly, 20 μL of 1 M HCl was added to 200 μL of maloncarbonyl bis-(dimethylacetal), and the mixture was incubated for 45 min at room temperature. The MDA concentration was determined by absorbance at 245 nm, using the coefficient factor 13, 700 M^−1 cm^−1. […] The LDL samples were incubated for 24 h with macrophages and the cholesterol content of the cells was measured using an enzymatic cholesterol assay as described^61.

NCc1ccccc1O [2-HOBA, 2-hydroxybenzylamine]
cytokine levels (IL-1β, IL-6, TNF-α) (IL-1β, IL-6, TNF-α, SAA; Ldlr−/− mice on chow diet, 1 g/L): no impact | serum levels of IL-1β, IL-6, TNF-α, and serum amyloid A (IL-1β, IL-6, TNF-α, SAA; Ldlr−/− mice, western diet 16 weeks, versus 4-HOBA or vehicle): decreased; also recorded: reduces | plasma levels of MDA (MDA): decreased | MDA content in HDL (MDA-HDL): reduced | reduction of MDA adduct content of isolated HDL (ELISA) (MDA-HDL; compared to 4-HOBA): 56% | reduction of MDA adduct content of isolated HDL (ELISA) (MDA-HDL; compared to vehicle): 57% | ability of LDL from treated mice to enrich cells with cholesterol [1]: not different
